Data set [1] deals with T1, EmrE (dimeric, detergent-free OspA-EmrE-ApoAI*) (UniProt P02647+P23895).
T1 construct: made in house; host or cells: E. coli BL21(DE3), pET28a
Kind of data set: Ligand binding by tryptophan fluorescence quenching, in vivo solubilized EmrE. Also noted: species or system E. coli. Conditions: for binding affinity of OspA-EmrE-ApoAI* compared to detergent-solubilized EmrE: 10 μM protein, EmrE comparator in DDM buffer. The protocol: Fluorescence spectra of protein samples were collected using a Fluorolog-Tau-3 time-resolved spectrofluorometer (Horiba). Protein concentration of OspA-EmrE-ApoAI* in SEC buffer and EmrE in DDM containing buffer (20 mM Tris-HCl, pH 7.5, 150 mM NaCl, and 0.08% w/v DDM) was 10 μM. Fluorescence spectra using a 295-nm excitation were collected after each volume of ligand. A small magnetic stir bar was added to the 1-cm path-length quartz cuvette containing either the sample or buffer. The stirring speed was set such that the surface was not noticeably disturbed. Approximately 1 min was allowed between the addition of ligand and the beginning of spectra collection. A total of 3 replicates were performed with the first sample preparation to control for experimental variability. After this, only one experimental replicate of the following second and third sample preparations were performed. Thus, each ligand-binding curve reflects the average of 3 replicates from 3 different protein preparations to control for biological and preparation variability. A 10-nm slit width was used for both excitation and emission. The interval was set at 2.0 nm and the integration time at 0.1 s. Only one scan of the emission between 300 and 400 nm was collected per titration. […] Quenching of fluorescence was recorded and plotted using GraphPad PRISM 6.
It was next determined whether EmrE that had been solubilized by fusion to ApoAI* was able to bind to known ligands. […] There are a total of 14 aromatic amino acids in EmrE (4 tryptophans, 5 tyrosines, and 5 phenylalanines), some of which participate in ligand binding and protein stability and permit determination of binding constants based on fluorescence quenching (Bay et al., “Spectroscopic Analysis of Small Multidrug Resistance Protein EmrE in the Presence of Various Quaternary Cation Compounds,” Biochim. Biophys. Acta 1818:1318-31 (2012), which is hereby incorporated by reference in its entirety). The ligand binding activity of dimeric, detergent-free OspA-EmrE-ApoAI* was measured and compared to detergent-solubilized EmrE. […]

The target in data set [2] is in vitro solubilized EmrE (Escherichia coli, UniProt P23895). Conditions: cited from earlier work.
The target in data set [3] is T2, cytochrome P450c17 (17α-hydroxylase/17,20-lyase; CYP17A1) (Homo sapiens, UniProt P05093).
T2 sequence (P05093 1-508): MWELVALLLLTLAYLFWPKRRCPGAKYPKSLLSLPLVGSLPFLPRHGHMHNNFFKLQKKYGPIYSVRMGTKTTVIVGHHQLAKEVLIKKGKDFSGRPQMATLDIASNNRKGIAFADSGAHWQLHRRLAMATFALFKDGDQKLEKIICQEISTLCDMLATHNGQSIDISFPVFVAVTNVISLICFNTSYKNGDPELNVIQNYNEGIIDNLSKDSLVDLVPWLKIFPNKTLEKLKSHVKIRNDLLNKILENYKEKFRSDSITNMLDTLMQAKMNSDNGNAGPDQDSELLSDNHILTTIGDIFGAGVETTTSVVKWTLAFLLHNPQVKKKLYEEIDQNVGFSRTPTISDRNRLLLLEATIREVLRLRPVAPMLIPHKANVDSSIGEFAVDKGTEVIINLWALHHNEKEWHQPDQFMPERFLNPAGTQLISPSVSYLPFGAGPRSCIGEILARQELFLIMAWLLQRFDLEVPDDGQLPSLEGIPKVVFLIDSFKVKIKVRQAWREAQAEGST
Conditions: cited from earlier work.

The target in a further data set is T3, CYP17A1 (Homo sapiens, UniProt P05093).
T3 construct: microsomes containing native CYP17A1 (5 pmol); made in house; host or cells: transformed yeast (microsomes)
T3 sequence (P05093 1-508): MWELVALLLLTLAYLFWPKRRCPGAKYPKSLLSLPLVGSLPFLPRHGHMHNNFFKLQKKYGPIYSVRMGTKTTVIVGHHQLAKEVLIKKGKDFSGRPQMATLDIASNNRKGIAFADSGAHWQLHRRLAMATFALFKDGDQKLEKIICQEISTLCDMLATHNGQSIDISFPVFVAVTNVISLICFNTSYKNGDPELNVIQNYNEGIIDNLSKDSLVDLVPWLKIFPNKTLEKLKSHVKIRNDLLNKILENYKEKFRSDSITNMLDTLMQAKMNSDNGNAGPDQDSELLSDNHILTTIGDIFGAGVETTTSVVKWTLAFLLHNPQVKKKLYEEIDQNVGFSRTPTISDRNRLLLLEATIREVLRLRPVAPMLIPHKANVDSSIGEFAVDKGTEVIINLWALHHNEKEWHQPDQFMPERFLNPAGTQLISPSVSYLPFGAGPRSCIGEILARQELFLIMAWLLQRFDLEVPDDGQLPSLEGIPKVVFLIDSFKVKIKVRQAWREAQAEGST
The data set is described as follows: Lyase assay: augmentation of CYP17A1 lyase activity by cyt b5 variants. The format is biochemical. The protocol:
In a 2-ml polypropylene tube, microsomes containing native CYP17A1 (5 pmol) and cytochrome P450 oxidoreductase ([…]), at room temperature for 5 min before adding substrate. The reaction mixture was then diluted to 0.2 ml with 50 mM potassium phosphate buffer (pH 7.4), and substrate 17-hydroxypregnelonone (17-P5; 5 μM with 80,000 CPM in methanol, 2% of incubation volume) was added. The resulting mixture was pre-incubated at 37° C. for 3 min before adding NADPH (1 mM) and incubating at 37° C. for another 20 min. The reaction mixture was extracted with 1 ml dichloromethane, and the organic phase was dried under nitrogen flow. Steroids were analyzed using an Agilent 1260 Infinity HPLC system with UV detector and β-RAM4 in-line scintillation counter (LabLogic, Brandon, Fla.). Extracted steroid products were dissolved in 20 μl of methanol, and 5 μl injections were resolved with a 50×2.1 mm, 2.6 μm, C8 Kinetex column (Phenomenex, Torrance, Calif.), equipped with a guard column at a flow rate of 0.4 mL min^−1. A methanol/water linear gradient was used: 27% methanol from 0 to 0.5 min, 39% to 16 min, 44% to 20 min, 60% to 22 min, 71% to 30 min, 75% to 30.5 min, 27% to 33 min. Products were identified by retention times of external standards chromatographed at the beginning and ends of the experiments. The flow rate of the scintillation cocktail (Bio-SafeII, Research Products International, Mount Prospect, Ill.) was 1.2 mL min^−1, and the data were processed with Laura4 software (LabLogic).

Like-named read-outs stand apart in the source and are kept apart here.

Regarding `C[n+]1ccc(-c2cc[n+](C)cc2)cc1` [MV, methyl viologen], the “binding affinity of OspA-EmrE-ApoAI* compared to detergent-solubilized EmrE” value in data set [1] was “higher”. For the same molecule, the equilibrium dissociation constant (Kd) is 48 µM in data set [1] (in vivo solubilized EmrE, detergent-free); 46.2 µM in data set [2] (in vitro solubilized EmrE in dodecylmaltoside); 38.2 µM in data set [2] (in vitro solubilized EmrE in small unilamellar vesicles); 5.4 µM in data set [2] (in vitro solubilized EmrE in sodium dodecyl sulphate).

As for `c1ccc([P+](c2ccccc2)(c2ccccc2)c2ccccc2)cc1` [TPP+, tetraphenylphosphonium], the “binding affinity of OspA-EmrE-ApoAI* compared to detergent-solubilized EmrE” value in data set [1] was “higher”.

B1: detergent-solubilized cyt b5: wild-type human cytochrome b5 that had been detergent solubilized (protein)
chain: MAEQSDEAVKYYTLEEIQKHNHSKSTWLILHHKVYDLTKFLEEHPGGEEVLREQAGGDATENFEDVGHSTDAREMSKTFIIGELHPDDRPKLNKPPETLITTIDSSSSWWTNWVIPAISAVAVALMYRLYMAED
B1: the “stimulation of 17,20-lyase activity” value in data set [3] (recombinant cyt b5 from E. coli, literature) is “stimulated 17,20-lyase activity”. Moreover, in the data set with CYP17A1, the “stimulation of lyase activity compared to the in vivo solubilized version” value is recorded as “slightly better stimulator of lyase activity”. In addition, the “stimulation of CYP17A1 lyase activity (DHEA formed from 17-P5)” value with CYP17A1 (5-25 pmol cyt b5 variant) was “plateaued”. The “stimulation of CYP17A1 lyase activity” value with CYP17A1 (at slightly lower concentrations) was “dose-dependent stimulation”.

B2: cyt b5: human cytochrome b5, 134-residue bitopic membrane protein (protein, UniProt P00167 1-134, looked up)
chain: MAEQSDEAVKYYTLEEIQKHNHSKSTWLILHHKVYDLTKFLEEHPGGEEVLREQAGGDATENFEDVGHSTDAREMSKTFIIGELHPDDRPKLNKPPETLITTIDSSSSWWTNWVIPAISAVAVALMYRLYMAED
modifications: full-length
notes: human cytochrome b5, 134-residue bitopic membrane protein
B2: in data set [3] (a molar equivalent of cyt b5), the “increase of the rate of the 17,20-lyase reaction” value is listed as 10 fold.
